Literature values in article PMC6272651, “Novel Orally Active Analgesic and Anti-Inflammatory Cyclohexyl-N-Acylhydrazone Derivatives” (Molecules, 2015).

Target: T1, adenosine receptor, subtype A2A (Rattus norvegicus, UniProt P30543)
T1 construct: gene Adora2a
Assay: radioligand displacement of [3H]CGS21680 ([…]) from rat A2A receptors
Conditions: read-out: Binding A2a / % of inhibition ^a

T1 sequence (P30543 whole entry): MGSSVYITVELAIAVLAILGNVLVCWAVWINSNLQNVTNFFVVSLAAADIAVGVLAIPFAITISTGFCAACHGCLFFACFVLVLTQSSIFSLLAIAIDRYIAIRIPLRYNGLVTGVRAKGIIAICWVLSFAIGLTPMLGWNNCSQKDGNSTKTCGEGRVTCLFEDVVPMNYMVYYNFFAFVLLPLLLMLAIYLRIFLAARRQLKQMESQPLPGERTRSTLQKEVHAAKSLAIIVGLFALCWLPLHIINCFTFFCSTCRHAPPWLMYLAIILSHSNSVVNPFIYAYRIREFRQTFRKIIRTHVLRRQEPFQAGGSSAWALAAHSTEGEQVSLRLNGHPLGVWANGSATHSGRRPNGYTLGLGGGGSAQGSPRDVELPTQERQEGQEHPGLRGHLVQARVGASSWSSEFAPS

## O=C(N/N=C/c1cccs1)c1ccc2c(c1)OCO2 [compound 8, (E)-N'-((thiophen-2-yl)methylene)benzo[d][1,3]dioxole-5-carbohydrazide]
  Ki: 8.2 µM
